Results: patent US20150297482A1, “MALODOR COUNTERACTING COMPOSITIONS AND METHOD FOR THEIR USE TO COUNTERACT SWEAT MALODOR” (FIRMENICH SA, priority 2009, published 2015)

Test system: Staphylococcus haemolyticus CNCM I-4170
Assay: Protocol A: in-vitro malodor inhibition (free thiol groups from Cys-Gly precursor, DTNB absorbance at 412 nm)
Format: cell-based
Details: Staphylococcus haemolyticus, CNCMI4170, Table 2, read-out: Ingredient Malodor Inhibition Value (%); for inhibition at 0.0012 %: 0.0012 w/v % in medium; for inhibition at 0.0025 %: 0.0025 w/v % in medium; for inhibition at 0.005 %: 0.005 w/v % in medium; for inhibition at 0.0125 %: 0.0125 w/v % in medium; for inhibition at 0.025 %: 0.025 w/v % in medium
Source text: Further details of such a screening and % inhibition measurement and definition are described further on in this application. The precursor used, which may also be in the form of a human sweat sample, typically generates malodorant sulfur compounds when acted upon by the Staphylococcus haemolyticus cells, or by a β-lyase present in such cells. The malodor inhibition coefficient, as defined herein, reflects the % of reduction in free SH groups generated in the above-mentioned medium by the enzymatic activity of the bacterial cells when in presence of the MOC ingredient or MOC composition in question, as compared to the same measurement in their absence. […] Alternatively, the bacterial cells can be replaced by a β-lyase present in said cells. […] Detection of enzymatic activity inhibition is measured via the sulfur groups, namely thiol groups, freed from the precursor bacterial transformation, by comparison with the reference experiment in the absence of the respective MOC ingredient, said sulfur groups being detected by interaction with DTNB, a known chemical detector system for thiols. The reaction can be monitored by absorbance reading at 412 nm. The procedure can be performed indifferently with either a purified or semi-purified enzyme or intact bacterial cells, as in the case described here. Malodor inhibition coefficient is measured as a function of the percentage of free thiol groups in the medium, over time, by an absorbance method, and reflects the reduction in malodor obtained in the presence of the MOC ingredients and compositions. […] At the end of the growth phase, the bacterial cells were harvested by centrifugation at 5000 rpm for 15 min. The cell pellet was then washed with 0.1 volumes of sterile potassium phosphate buffer 0.1 M, pH 7.5. […] The precursor was used at 0.17 mM final concentration. • Detection reagent DTNB • DTNB (5,5′-Dithio-bis-(2-nitrobenzoic acid; […]

Row | SMILES | inhibition at 0.0012 % | inhibition at 0.0025 % | inhibition at 0.005 % | inhibition at 0.0125 % | inhibition at 0.025 % | inhibition at 0.05 % (0.05 w/v % in medium)
1 | CC=CCCCCCCCC=O [9-Undecenal] | 0% | 0% | 62.4% | 89% | 81.8% | 77.9%
2 | CCCCCCC/C=C/C=O [(E)-2-Decenal] | 22% | 28.2% | 66.6% | 90.1% | 100% | 
